Measurements from US6376480B1, “Vitamin D derivatives with substituents at C-25, process for their production, intermediate products and use for the production of pharmaceutical agents” (Schering Aktiengesellschaft, priority 1995, dated 2002).

Columns and labels:
[1] = tested on: HL 60 cells; experiment: differentiation induction of HL 60 cells to macrophages (NBT reduction); type: cell-based, human; conditions: DR = test substance dose/calcitriol dose for comparable semi-maximum effects; 96 hours incubation
Protocol: It is known in the literature (Mangelsdorf, D. J. et al., J. Cell. Biol. 98: 391-398 (1984)), that the treatment of human leukemia cells (promyelocyte cell line HL 60) in vitro with calcitriol induces the differentiation of cells to macrophages.
HL 60 cells are cultivated in tissue culture medium (RPMI 10% fetal calf serum) at 37° C. in an atmosphere of 5% CO2 in air.
For substance testing, the cells are centrifuged off, and 2.0×10^5 cells/ml in phenol red-free tissue culture medium is taken up. The test substances are dissolved in ethanol and diluted with tissue culture medium without phenol red to the desired concentration. The dilution stages are mixed with the cell suspension at a ratio of 1:10, and 100 μl each of this cell suspension that is mixed with substance is pipetted into an indentation of a 96-hole plate. For control, a cell suspension is mixed analogously with the solvent.
After incubation for 96 hours at 37° C. in 5% CO2 in air, 100 μl of an NBT-TPA solution (nitro blue tetrazolium (NBT), final concentration in the batch of 1 mg/ml, tetradecanoyl phorbolmyristate-13-acetate (TPA), final concentration in the batch of 2×10^−7 mol/l) is pipetted into each indentation of the 96-hole plate in the cell suspension.
By incubation for 2 hours at 37° C. and 5% CO2 in air, NBT is reduced to insoluble formazan because of the intracellular oxygen radical release, stimulated by TPA, in the cells that are differentiated to macrophages.
To complete the reaction, the indentations of the 96-hole plate are suctioned off, and the cells are affixed to the bottom of the plate by adding methanol and dried after affixing. To dissolve the intracellular formazan crystals that are formed, 100 μl of potassium hydroxide (2 mol/l) and 100 μl of dimethyl sulfoxide are pipetted into-each indentation and ultrasonically treated for 1 minute. The concentration of formazan is measured by spectrophotometry at 650 nm.
As a yardstick for the differentiation induction of HL 60 cells to macrophages, the concentration of formed formazan applies.

[2] = target: T1, calcitriol receptor (Sus scrofa, UniProt A3RGC1); experiment: calcitriol-receptor test (competition with 3H-calcitriol); conditions: quotient of concentrations of test substance and calcitriol for 50% competition, receptor protein from intestines of juvenile pigs
T1 sequence (A3RGC1 1-427): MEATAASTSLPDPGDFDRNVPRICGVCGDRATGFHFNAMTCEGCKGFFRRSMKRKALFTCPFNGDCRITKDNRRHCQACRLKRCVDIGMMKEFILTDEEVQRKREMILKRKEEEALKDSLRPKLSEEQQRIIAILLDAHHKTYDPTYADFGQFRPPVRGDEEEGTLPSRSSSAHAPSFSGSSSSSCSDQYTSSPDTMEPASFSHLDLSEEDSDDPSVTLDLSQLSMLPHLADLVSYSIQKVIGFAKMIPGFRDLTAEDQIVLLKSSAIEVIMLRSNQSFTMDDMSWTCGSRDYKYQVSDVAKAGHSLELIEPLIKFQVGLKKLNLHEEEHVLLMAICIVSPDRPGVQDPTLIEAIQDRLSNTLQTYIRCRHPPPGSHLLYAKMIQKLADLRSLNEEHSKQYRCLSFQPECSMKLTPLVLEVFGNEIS
Protocol: The vitamin D activity of the substances according to the invention is determined with the aid of the calcitriol-receptor test. It is carried out with use of a specific receptor protein from the intestines of juvenile pigs.
Then, the samples are centrifuged at 10,000×g for 5 minutes at 4° C. The supernatant is decanted and measured in a β-counter after 1 hour of equilibration in Picofluor 15™.
The competition curves that are obtained with various concentrations of test substance as well as of reference substance (unlabeled calcitriol) at constant concentration of the reference substance (^3H-calcitriol) are placed in relation to one another and a competition factor (KF) is determined.
It is defined as a quotient of the concentrations of the respective test substance and the reference substance, which are necessary for 50% competition: [formula]

[3] = tested on: HL 60 cells; experiment: antagonism of the action of calcitriol in HL 60 cells; type: cell-based, human

Competition Factor KF for Receptor Bonding [2] | Compound | Dose Ratio for Differentiation Induction in HL 60 Cells [1] | antagonism of the action of calcitriol in HL 60 cells [3]
3 | CCCCC(=O)C1([C@H](O)/C=C/[C@@H](C)[C@H]2CC[C@H]3/C(=C/C=C4C[C@@H](O)C[C@H](O)C4)CCC[C@]23C)CC1 [Compound 58b, (7E,22E)-(1R,3R,24R)-25-(1-Oxopentyl)-26,27-cyclo-19-nor-9,10-secocholesta-5,7,22-triene-1,3,24-triol] | 160 | antagonize the action of calcitriol
4 | C=C1C(=CC=C2CCCC3(C)C2CCC3C(C)(C)C=CC(O)C2(C(C)=O)CC2)CC(O)CC1O [Compound 33b, (5Z,7E,22E)-(1S,3R,24R)-25-acetyl-20-methyl-26,27-cyclo-9,10-secocholesta-5,7,10(19),22-tetraene-1,3,24-triol] | 0.4 | –
2 | C=C1/C(=C\C=C2/CCC[C@]3(C)[C@@H]([C@H](C)/C=C/[C@@H](O)C4(C(=O)c5ccccc5)CC4)CC[C@@H]23)C[C@@H](O)C[C@@H]1O [Compound 10b, (5Z,7E,22E)-(1S,3R,24R)-25-benzoyl-26,27-cyclo-9,10-secocholesta-5,7,10(19),22-tetraene-1,3,24-triol] | 6 | –
4 | C=C1/C(=C\C=C2/CCC[C@]3(C)[C@@H]([C@H](C)/C=C/[C@@H](O)C4(/C=C/C(=O)OC(C)(C)C)CC4)CC[C@@H]23)C[C@@H](O)C[C@@H]1O [Compound 26b, [5Z,7E,22E,25(E)]-(1S,3R,24R)-25-[3-(1,1-Dimethylethoxy)-3-oxo-1-propenyl]-26,27-cyclo-9,10-secocholesta-5,7,10(19),22-tetraene-1,3,24-triol] | >1000 | antagonize the action of calcitriol
4 | C=C1C(=CC=C2CCCC3(C)C2CCC3C(C)(C)C=CC(O)C2(C(C)=O)CC2)CC(O)CC1O [Compound 33a, (5Z,7E,22E)-(1S,3R,24S)-25-acetyl-20-methyl-26,27-cyclo-9,10-secocholesta-5,7,10(19),22-tetraene-1,3,24-triol] | 0.5 | –
3.5 | CCCCCCC(=O)C1([C@@H](O)/C=C/[C@@H](C)[C@H]2CC[C@H]3/C(=C/C=C4C[C@@H](O)C[C@H](O)C4)CCC[C@]23C)CC1 [Compound 64a, (7E,22E)-(1R,3R,24S)-25-(1-Oxoheptyl)-26,27-cyclo-19-nor-9,10-secocholesta-5,7,22-triene-1,3,24-triol] | 120 | antagonize the action of calcitriol
3 | CCCCCC(=O)C1([C@H](O)/C=C/C(C)(C)[C@H]2CC[C@H]3/C(=C/C=C4C[C@@H](O)C[C@H](O)C4)CCC[C@]23C)CC1 [Compound 87b, (7E,22E)-(1R,3R,24R)-20-methyl-25-(1-oxohexyl)-26,27-cyclo-19-nor-9,10-secocholesta-5,7,22-triene-1,3,24-triol] | 116 | antagonize the action of calcitriol
10 | CC(=O)C1(C(O)C=CC(C)(C)C2CCC3C(=CC=C4CC(O)CC(O)C4)CCCC32C)CC1 [Compound 81a, (7E,22E)-(1R,3R,24S)-25-Acetyl-20-methyl-26,27-cyclo-19-nor-9,10-secocholesta-5,7,22-triene-1,3,24-triol] | 0.2 | –
2 | C=C1/C(=C\C=C2/CCC[C@]3(C)[C@@H]([C@H](C)/C=C/[C@@H](O)C4(C(=O)CCCC)CC4)CC[C@@H]23)C[C@@H](O)C[C@@H]1O [Compound 6b, (5Z,7E,22E)-(1S,3R,24R)-25-(1-Oxopentyl)-26,27-cyclo-9,10-secocholesta-5,7,10(19),22-tetraene-1,3,24-triol] | 58 | antagonize the action of calcitriol
4.5 | CC(=O)C1(C(O)C=CC(C)C2CCC3C(=CC=C4CC(O)CC(O)C4)CCCC32C)CC1 [Compound 55b, (7E,22E)-(1R,3R,24R)-25-Acetyl-26,27-cyclo-19-nor-9,10-secocholesta-5,7,22-triene-1,3,24-triol] | 0.2 | –
3 | C=C1/C(=C\C=C2/CCC[C@]3(C)[C@@H]([C@H](C)/C=C/[C@@H](O)C4(C(=O)CCCCC)CC4)CC[C@@H]23)C[C@@H](O)C[C@@H]1O [Compound 9b, (5Z,7E,22E)-(1S,3R,24R)-25-(1-Oxohexyl)-26,27-cyclo-9,10-secocholesta-5,7,10(19),22-tetraene-1,3,24-triol] | >180 | antagonize the action of calcitriol
33 | C=C1/C(=C\C=C2/CCC[C@]3(C)[C@@H](C(C)(C)/C=C/[C@@H](O)C4(C(=O)CCCCCCC)CC4)CC[C@@H]23)C[C@@H](O)C[C@@H]1O [Compound 43b, (5Z,7E,22E)-(1S,3R,24R)-20-methyl-25-(1-oxooctyl)-26,27-cyclo-9,10-secocholesta-5,7,10(19),22-tetraene-1,3,24-triol] | >1000 | antagonize the action of calcitriol
2 | C=C1C(=CC=C2CCCC3(C)C2CCC3C(C)(C)C=CC(O)C2(C(=O)CCC)CC2)CC(O)CC1O [Compound 35b, (5Z,7E,22E)-(1S,3R,24R)-20-methyl-25-(1-oxobutyl)-26,27-cyclo-9,10-secocholesta-5,7,10(19),22-tetraene-1,3,24-triol] | 0.2 | –
48 | C=C1/C(=C\C=C2/CCC[C@]3(C)[C@@H](C(C)(C)/C=C/[C@H](O)C4(C(=O)CCCCCCC)CC4)CC[C@@H]23)C[C@@H](O)C[C@@H]1O [Compound 43a, (5Z,7E,22E)-(1S,3R,24S)-20-methyl-25-(1-oxooctyl)-26,27-cyclo-9,10-secocholesta-5,7,10(19),22-tetraene-1,3,24-triol] | >1000 | antagonize the action of calcitriol
3 | CCCCCC(=O)C1([C@H](O)/C=C/[C@@H](C)[C@H]2CC[C@H]3/C(=C/C=C4C[C@@H](O)C[C@H](O)C4)CCC[C@]23C)CC1 [Compound 61b, (7E,22E)-(1R,3R,24R)-25-(1-Oxohexyl)-26,27-cyclo-19-nor-9,10-secocholesta-5,7,22-triene-1,3,24-triol] | >1000 | antagonize the action of calcitriol
2 | C=C1C(=CC=C2CCCC3(C)C2CCC3C(C)C=CC(O)C2(C(=O)C3CC3)CC2)CC(O)CC1O [Compound 12b, (5Z,7E,22E)-(1S,3R,24R)-25-(Cyclopropylcarbonyl)-26,27-cyclo-9,10-secocholesta-5,7,10(19),22-tetraene-1,3,24-triol] | 0.2 | –
7 | C=C1C(=CC=C2CCCC3(C)C2CCC3C(C)(C)C=CC(O)C2(C(=O)CCC)CC2)CC(O)CC1O [Compound 35a, (5Z,7E,22E)-(1S,3R,24S)-20-methyl-25-(1-oxobutyl)-26,27-cyclo-9,10-secocholesta-5,7,10(19),22-tetraene-1,3,24-triol] | 0.3 | –
3 | CC(=O)C1(C(O)C=CC(C)(C)C2CCC3C(=CC=C4CC(O)CC(O)C4)CCCC32C)CC1 [Compound 81b, (7E,22E)-(1R,3R,24R)-25-acetyl-20-methyl-26,27-cyclo-19-nor-9,10-secocholesta-5,7,22-triene-1,3,24-triol] | 0.1 | –
